# Test results published in patent US5424205A, “Amyloidin protease and uses thereof” (Athena Neurosciences, Inc., priority 1993, dated 1995).
# Read-outs that look alike come from different tables or passages of the source. Starred links: 1 amine or outer side, 2 acyl side, 3 side chain; linkers in the order of their positions; H or OH if unused. Residues, ends and D or L forms follow the SMILES beside them. *: point of attachment. pNA = O=[N+]([O-])c1ccc(N*)cc1; Suc = O=C(CCC(=O)[*:2])[*:1]; MeOSuc = COC(=O)CCC(=O)*; Cbz = O=C(OCc1ccccc1)*; Boc = CC(C)(C)OC(=O)*
# B1: rat mast cell protease I (RMCP I) (protein)
# chain: IIGGVESRPHSRPYMAHLEITTERGYKATCGGFLVTRQFVMTAAHCKGRETTVTLGVHDVSKTESTQQKIKVEKQIVHPNYNFYSNLHDIMLLKLQKKAKVTPAVDVIPLPQPSDFLKPGKMCRAAGWGQTGVTKPTSNTLREVKQRIMDKEACKNYFHYNYNFQVCVGSPRKIRSAYKGDSGGPLVCAGVAHGIVSYGRGDAKPPAVFTRISPYVPWINKVIKGKDLTSLSLHESESPS
# Legend:
# amyloidin [1] = molecular target: T1, amyloidin (Homo sapiens, UniProt P52888); assay: Inhibition of amyloidin by various inhibitors (APP592-601 peptide cleavage); format: biochemical
# T1 construct: from tissue; a purification from blood is also described
# T1 sequence (P52888 whole entry): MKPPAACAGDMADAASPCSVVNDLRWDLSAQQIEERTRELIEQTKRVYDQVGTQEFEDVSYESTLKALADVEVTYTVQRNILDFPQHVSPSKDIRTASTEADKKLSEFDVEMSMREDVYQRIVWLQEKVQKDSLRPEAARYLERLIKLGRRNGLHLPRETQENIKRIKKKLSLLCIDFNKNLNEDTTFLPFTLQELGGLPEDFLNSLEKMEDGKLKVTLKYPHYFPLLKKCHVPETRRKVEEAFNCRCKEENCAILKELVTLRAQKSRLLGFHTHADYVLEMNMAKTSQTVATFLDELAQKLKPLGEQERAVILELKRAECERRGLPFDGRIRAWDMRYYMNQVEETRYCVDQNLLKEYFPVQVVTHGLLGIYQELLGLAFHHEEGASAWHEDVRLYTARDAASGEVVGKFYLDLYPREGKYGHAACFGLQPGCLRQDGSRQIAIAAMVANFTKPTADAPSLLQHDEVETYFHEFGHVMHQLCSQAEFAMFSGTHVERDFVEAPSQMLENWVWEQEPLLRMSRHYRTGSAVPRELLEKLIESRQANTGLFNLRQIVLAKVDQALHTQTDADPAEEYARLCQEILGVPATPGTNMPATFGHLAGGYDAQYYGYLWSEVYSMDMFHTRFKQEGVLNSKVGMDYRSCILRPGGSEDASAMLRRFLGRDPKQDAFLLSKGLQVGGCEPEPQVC
# amyloidin [2] = molecular target: T1, amyloidin; assay: Cleavage of short peptide para-nitroanilide substrates by amyloidin (A405); format: biochemical; conditions: pH 7.5; up to 2 hours
# amyloidin [3] = molecular target: T1, amyloidin; assay: Cleavage of APP592-601 and its analogs by amyloidin (subsite requirements); format: biochemical; conditions: pH 7.5, CaCl2, 37° C., 60 min; RP-HPLC
# Description: Routinely, 25 ul of enzyme solution were mixed with 10 ul of 1M Tris, pH 7.5, 5 ul 10 mM CaCl2, and 10 ul of a 2 mg/ml Stock solution of APP592-601 in water, or 20 mM Tris, pH 7.5, 0.15M NaCl, in 1.5 ml polypropylene microfuge tubes. The reaction mixtures were incubated for 60 min at 37° C. in a water bath, then quenched with 450 ul ice-cold ethanol, and incubated on ice for a further 20 min. They were centrifuged at 15,000×g for 10 min, and the supernatants transferred to new polypropylene tubes and dried under vacuum. The residue was dissolved in 0.5 ml water, centrifuged at 15,000×g for 5 min, and 200 ul of the supernatant injected onto a 0.46×30 cm Vydac C18 column equilibrated with 0.1% trifluoroacetic acid in water, at 1 ml/min. The column was immediately eluted with a linear gradient to 40% acetronitrile in 0.1% trifluoroacetic acid in water, over 20 minutes. The elution was monitored at 220 nm, and peaks were individually collected, hydrolyzed in 6N HCl at […] for 2 hr, then subjected to quantitative amino-acid analysis in an Applied Biosystems amino-acid analyzer. Once identified, times of elution were used to identify cleavage patterns.
# In order to test the subsite requirements of amyloidin in the APP592-601 cleavage assay, analogs of this peptide substrate were synthesized.
# Following synthesis and purification, the peptides were then incubated with amyloidin under conditions identical to those developed with APP592-601. The underlined residues designated changes from the native peptide sequence while the arrows indicate peptide cleavage sites. [drawing 5]
# brain protease = conditions: TLC; 125I-labelled peptide; Abraham et al; cited from earlier work
# amyloidin [4] = molecular target: T1, amyloidin; assay: Cleavage of full-length APP from baculovirus cells by amyloidin; format: biochemical; conditions: certain preliminary conditions
# [5] = molecular target: APP592-601 (N-acetyl-Ser-Glu-Val-Lys-Met-Asp-Ala-Glu-Phe-Arg)
# [6] = molecular target: human amyloidin protease (human)
# [7] = molecular target: soybean trypsin inhibitor (Sigma Chemicals) immobilized on CH-Sepharose; assay: affinity column of immobilized soybean trypsin inhibitor; activity measured in the flow-through
molecule,measurement,setting,value
"c1cnc2c(c1)ccc1cccnc12 [1,10-phen., 1,10phenanthroline]",remaining activity at 100 µM,"amyloidin [1]; assay conc. 0.1 mM, stock in DMSO, 30 min pre-incubation, room temperature, read-out: % Control Activity",75%
same,inhibitory effect on amyloidin,amyloidin [1]; in words,only weakly inhibitory
"CC(=O)N[C@@H](C)C(=O)N[C@@H](CC(=O)O)C(=O)Nc1ccc([N+](=O)[O-])cc1 [Ac-AD-pNA, Acetylalanyl-aspartyl-] (Ac-Ala-Asp-pNA)",cleavage of p-NA substrate by amyloidin (increase in A405),amyloidin [2],0
"CSCC[C@H](NC(=O)[C@H](CCCCN)NC(=O)[C@@H](NC(=O)[C@H](CCC(=O)O)NC(C)=O)C(C)C)C(=O)Nc1ccc([N+](=O)[O-])cc1 [Ac-EVKM-PNA, acetylglutamyl-valyl-lysyl-methinyl-pNA] (Ac-EVKM-pNA)",cleavage of p-NA substrate by amyloidin (increase in A405),amyloidin [2],0
CSCC[C@@H](C=O)NC(=O)[C@H](CC(C)C)NC(=O)[C@H](CC(C)C)NC(C)=O [Calp. Inh. II] (Ac-Leu-Leu-Met-aldehyde),remaining activity at 50 µg/mL,"amyloidin [1]; assay conc. 50 ug/ml, 30 min pre-incubation, room temperature, read-out: % Control Activity",130%
same,inhibitory effect on amyloidin,amyloidin [1]; in words,no inhibitory effect
CC(C)C[C@H](NC(=O)[C@H]1O[C@@H]1C(=O)O)C(=O)NCCCCN=C(N)N [E-64],remaining activity at 1 µg/mL,"amyloidin [1]; assay conc. 1 ug/ml, 30 min pre-incubation, room temperature, read-out: % Control Activity",119%
same,inhibitory effect on amyloidin,amyloidin [1]; in words,no inhibitory effect
"O=C(O)CN(CCN(CC(=O)O)CC(=O)O)CC(=O)O [EDTA, ethylenediaminetetraacetic acid]",cleavage of APP592-601 by amyloidin,amyloidin [1],no detectable cleavage
same,inhibitory effect on amyloidin,amyloidin [1],strongly inhibited
CSCC[C@H](NC(=O)[C@H](CCC(N)=O)NC(=O)[C@@H](NC(=O)[C@H](CCC(=O)O)NC(=O)[C@H](CO)NC(C)=O)C(C)C)C(=O)N[C@@H](CC(=O)O)C(=O)N[C@@H](C)C(=O)N[C@@H](CCC(=O)O)C(=O)N[C@@H](Cc1ccccc1)C(=O)N[C@@H](CCCNC(=N)N)C(N)=O [Gln595 analog] (Ac-SEVQMDAEFR-NH2),site of cleavage by amyloidin,amyloidin [3],all the cleavage by amyloidin was at the Met-Asp bond
"COC(=O)CCC(=O)N[C@@H](C)C(=O)N[C@@H](C)C(=O)N1CCC[C@H]1C(=O)N[C@H](C(=O)Nc1ccc([N+](=O)[O-])cc1)C(C)C [MeS-AAPV-pNA, Methoxysuccinylalanyl-alanyl-prolyl-valyl-] (MeOSuc-AAPV-pNA)",cleavage of p-NA substrate by amyloidin (increase in A405),amyloidin [2],0
"O=S(=O)(F)Cc1ccccc1 [PMSF, phenylmethylsulfonyl fluoride]",% Control Activity,amyloidin [1],69%
"C[C@H](NC(=O)CCC(=O)O)C(=O)N[C@@H](C)C(=O)N1CCC[C@H]1C(=O)N[C@@H](Cc1ccccc1)C(=O)Nc1ccc([N+](=O)[O-])cc1 [Suc-AAPF-pNA, Succinylalanyl-alanyl-prolyl-phenylalanyl-] (Suc-AAPF-pNA)",cleavage of p-NA substrate by amyloidin (increase in A405),amyloidin [2],0
"CSCC[C@H](NC(=O)[C@@H]1CCCN1C(=O)[C@H](C)NC(=O)[C@H](C)NC(=O)CCC(=O)O)C(=O)Nc1ccc([N+](=O)[O-])cc1 [Suc-AAPM-pNA, Suc-Ala-Ala-Pro-Met-pNA] (Suc-AAPM-pNA)",cleavage of p-NA substrate by amyloidin (increase in A405),amyloidin [2],0
"C[C@H](NC(=O)OCc1ccccc1)C(=O)N[C@@H](C)C(=O)Nc1ccc([N+](=O)[O-])cc1 [Z-AA-pNA, benzyloxycarbonylalanyl-alanyl-] (Cbz-Ala-Ala-pNA)",cleavage of p-NA substrate by amyloidin (increase in A405),amyloidin [2],0
"N=C(N)NCCC[C@H](NC(=O)OCc1ccccc1)C(=O)N[C@@H](CCCCN)C(=O)Nc1ccc([N+](=O)[O-])cc1 [Z-RK-pNA, benzyloxycarbonylarginyl-lysyl-] (Cbz-Arg-Lys-pNA)",cleavage of p-NA substrate by amyloidin (increase in A405),amyloidin [2],0
"N=C(N)NCCC[C@H](NC(=O)OCc1ccccc1)C(=O)N[C@@H](CCCNC(=N)N)C(=O)Nc1ccc([N+](=O)[O-])cc1 [Z-RR-pNA, benzyloxycarbonyl arginylarginyl-] (Cbz-Arg-Arg-pNA)",cleavage of p-NA substrate by amyloidin (increase in A405),amyloidin [2],0
CC(C)C[C@H](NC(=O)[C@@H](NC(=O)N[C@@H](Cc1ccccc1)C(=O)O)[C@@H]1CCN=C(N)N1)C(=O)N[C@H](C=O)Cc1ccccc1 [chymostatin],remaining activity at 25 µg/mL,amyloidin [1]; read-out: % Control Activity,77%
CC(C)C[C@H](NP(=O)(O)O[C@@H]1O[C@@H](C)[C@H](O)[C@@H](O)[C@H]1O)C(=O)N[C@@H](Cc1c[nH]c2ccccc12)C(=O)O [phosphoramidon],remaining activity at 100 µg/mL,"amyloidin [1]; assay conc. 0.1 mg/ml, 30 min pre-incubation, room temperature, read-out: % Control Activity",79%
same,inhibitory effect on amyloidin,amyloidin [1]; in words,only weakly inhibitory
CC(=O)N[C@@H](CO)C(=O)N[C@@H](CCC(=O)O)C(=O)N[C@H](C(=O)N[C@@H](CCCCN)C(=O)N[C@@H](C)C(=O)N[C@@H](CC(=O)O)C(=O)N[C@@H](C)C(=O)N[C@@H](CCC(=O)O)C(=O)N[C@@H](Cc1ccccc1)C(=O)N[C@@H](CCCNC(=N)N)C(N)=O)C(C)C [replacement of Met596 by Ala] (Ac-SEVKADAEFR-NH2),site of cleavage by amyloidin,amyloidin [3],"loss of cleavage at this site, but cleavage shifted to the Lys595-Ala596 bond"
Butyloxycarbonylalanyl-alanyl-aspartyl- (Boc-Ala-Ala-Asp-pNA; SMILES C[C@H](NC(=O)OC(C)(C)C)C(=O)N[C@@H](C)C(=O)N[C@@H](CC(=O)O)C(=O)Nc1ccc([N+](=O)[O-])cc1) [Boc-AAd-Pna],cleavage of p-NA substrate by amyloidin (increase in A405),amyloidin [2],0
HSEVKMDAEF,sites of cleavage by brain protease,brain protease,"primarily at three sites, between the Lys-Met, Met-Asp, and Asp-Ala, with some cleavage obtained at His-Ser"
aprotinin,% Control Activity,amyloidin [1],102%
same,inhibitory effect on amyloidin,amyloidin [1],nor did aprotinin
full-length protein (APP): full-length protein (APP) produced by baculovirus cells transformed with the gene encoding APP,cleavage of full-length APP by amyloidin,amyloidin [4],did not cleave
human amyloidin protease (enzyme),"Specific Activity (area/min/mg), DAEFR area by RP-HPLC",[5],2080 area/min/mg
same,increase in absorbance at 405 nm,Boc-AAd-Pna,0
same,increase in absorbance at 405 nm,Suc-AAPF-pNA,0
same,increase in absorbance at 405 nm,Ac-EVKM-PNA,0
same,increase in absorbance at 405 nm,Ac-AD-pNA,0
same,increase in absorbance at 405 nm,Z-AA-pNA,0
same,increase in absorbance at 405 nm,Z-RR-pNA,0
same,increase in absorbance at 405 nm,MeS-AAPV-pNA,0
same,increase in absorbance at 405 nm,Suc-AAPM-pNA,0
same,increase in absorbance at 405 nm,Z-RK-pNA,0
α1-PI: general plasma serine proteinase inhibitor,% Control Activity,"amyloidin [1]; assay conc. 30 ug/ml, 30 min pre-incubation, room temperature",98%
same,inhibitory effect on amyloidin,amyloidin [1]; in words,"Neither α-1-proteinase inhibitor or α-1-antichymotrypsin, two general plasma serine proteinase inhibitors, had any inhibitory effect"
α1-antichymotrypsin,% Control Activity (cleavage of APP592-601) (% control activity),[6],121
α1-proteinase inhibitor,% Control Activity (cleavage of APP592-601) (% control activity),[6],98
B1,percent of Suc-Ala-Ala-Pro-Phe-pNA hydrolysing activity bound to the matrix,[7],95% of this activity had bound to the matrix
